Experimental data from ChEMBL document CHEMBL1821677, “Identification of novel allosteric modulators for the G-protein coupled US28 receptor of human cytomegalovirus” (Bioorg Med Chem Lett, 2011).
The source made the active and inactive calls. The calls are words filed in the database; no cut-off is given here.

Key:
[1] = system: G-protein coupled receptor homolog US28 (Human cytomegalovirus); test: Efficacy at HCMV TB40/E US28 expressed in human HEK cells assessed as Elk-1 activation preincubated for 1 hrs measured after 20 to 24 hrs by PathDetect trans Elk-1 reporter gene assay relative to control; conditions: Human betaherpesvirus 5, HEK293
[2] = Inverse agonist activity at HCMV TB40/E US28 expressed in human HEK cells assessed as Elk-1 activation preincubated for 1 hrs measured after 20 to 24 hrs by luciferase reporter gene assay; format: functional, cell-based; conditions: Human betaherpesvirus 5, TB40/E, HEK293
[3] = Cytotoxicity against mock transfected human HEK cells at 10 uM after 20 to 24 hrs by Cell titer cell proliferation assay; format: cell-based; conditions: hek293, 10 µM
[4] = target: D(2) dopamine receptor (Homo sapiens) (UniProt P14416); test: Binding affinity to human dopamine D2L receptor expressed in HEK cells assessed as Elk-1 activation preincubated for 1 hrs measured after 20 to 24 hrs by PathDetect trans Elk-1 reporter gene assay; format: cell-based; conditions: HEK293
[5] = target: D(2) dopamine receptor (Homo sapiens) (UniProt P14416); test: Binding affinity to dopamine D2L receptor

Sequence of D(2) dopamine receptor (Homo sapiens) (P14416 whole entry): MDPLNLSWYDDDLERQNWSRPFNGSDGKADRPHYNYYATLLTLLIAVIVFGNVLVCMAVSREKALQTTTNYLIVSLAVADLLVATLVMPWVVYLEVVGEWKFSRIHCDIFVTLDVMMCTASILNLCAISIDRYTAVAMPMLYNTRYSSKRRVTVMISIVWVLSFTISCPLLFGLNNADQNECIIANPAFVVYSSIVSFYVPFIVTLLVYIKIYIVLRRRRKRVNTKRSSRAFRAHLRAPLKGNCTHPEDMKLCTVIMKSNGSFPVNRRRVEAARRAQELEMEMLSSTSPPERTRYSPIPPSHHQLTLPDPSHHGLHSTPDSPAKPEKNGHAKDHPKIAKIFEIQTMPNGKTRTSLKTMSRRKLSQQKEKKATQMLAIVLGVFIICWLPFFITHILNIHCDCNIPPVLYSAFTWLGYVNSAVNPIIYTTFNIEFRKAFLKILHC

CC1(CO)Cc2ccccc2C(=O)N1c1ccccc1 (configuration not stated)
Efficacy [1]: 41%
EC50 ([2]; read-out: EC50): 4400 nM
EC50 ([2]; read-out: pEC50 (converted)): 4370 nM

CC1(CCOC(=O)Cc2ccccc2)Cc2ccccc2CN1C(=O)Cc1ccccc1 (configuration not stated)
Efficacy [1]: -51%
EC50 ([2]; read-out: EC50): 7500 nM
EC50 ([2]; read-out: pEC50 (converted)): 7590 nM
Activity [3]: Toxic

CCC[C@H]1Cc2c(Cl)cccc2[C@@H](c2ccccc2)N1 (relative stereo)
Efficacy [1]: 27%
EC50 ([2]; read-out: EC50): 1500 nM
EC50 ([2]; read-out: pEC50 (converted)): 1550 nM

CC1(COC(=O)Cc2ccccc2)Cc2ccccc2CN1C(=O)Cc1ccccc1 (configuration not stated)
Efficacy [1]: -37%
EC50 ([2]; read-out: EC50): 3400 nM
EC50 ([2]; read-out: pEC50 (converted)): 3470 nM
Activity [3]: Non-toxic

CCCC[C@H]1Cc2c(Cl)cccc2[C@@H](c2ccccc2)N1 (relative stereo)
Efficacy [1]: 21%
Activity [4]: Active
EC50 ([2]; read-out: EC50): 130 nM
EC50 ([2]; read-out: pEC50 (converted)): 129 nM

CC1(COC(=O)c2ccccc2)Cc2ccccc2CN1C(=O)c1ccccc1 (configuration not stated)
Efficacy [1]: -62%
EC50 ([2]; read-out: EC50): 8500 nM
EC50 ([2]; read-out: pEC50 (converted)): 8510 nM
Activity [3]: Toxic

CSc1ccc2c(c1)C(N1CCN(C)CC1)Cc1ccccc1S2 (configuration not stated) [METITEPINE]
Efficacy [1]: 10%
EC50 ([2]; read-out: EC50): 350 nM
EC50 ([2]; read-out: pEC50 (converted)): 355 nM

CC1(CCO)Cc2ccccc2C(=O)N1c1ccccc1 (configuration not stated)
Efficacy [1]: -14%
EC50 ([2]; read-out: EC50): 1000 nM
EC50 ([2]; read-out: pEC50 (converted)): 1020 nM
Activity [3]: Non-toxic

CCCC[C@@H]1Cc2c(Cl)cccc2[C@@H](c2ccccc2)N1 (relative stereo)
Efficacy [1]: 16%
EC50 ([2]; read-out: EC50): 1400 nM
EC50 ([2]; read-out: pEC50 (converted)): 1410 nM

CCCC[C@H]1Cc2ccccc2[C@@H](c2ccccc2)N1 (relative stereo)
Efficacy [1]: 22%
Activity [4]: Active
EC50 ([2]; read-out: EC50): 280 nM
EC50 ([2]; read-out: pEC50 (converted)): 275 nM

CCCCCCCCCC(=O)N(CCN(C)C)C1CCCCC12Cc1ccccc1C(=O)N2 (configuration not stated)
Efficacy [1]: -22%
EC50 ([2]; read-out: EC50): 4800 nM
EC50 ([2]; read-out: pEC50 (converted)): 4790 nM

CC1(COC(=O)c2ccco2)Cc2ccccc2CN1C(=O)c1ccco1 (configuration not stated)
Efficacy [1]: -18%
EC50 ([2]; read-out: EC50): 7400 nM
EC50 ([2]; read-out: pEC50 (converted)): 7410 nM
Activity [3]: Non-toxic

CCCC[C@H]1Cc2ccc(F)cc2[C@@H](c2ccccc2)N1 (relative stereo)
Efficacy [1]: 15%
EC50 ([2]; read-out: EC50): 1800 nM
EC50 ([2]; read-out: pEC50 (converted)): 1780 nM

CCCCCC[C@H]1Cc2c(Cl)cccc2[C@@H](c2ccccc2)N1 (relative stereo)
Efficacy [1]: 21%
EC50 ([2]; read-out: EC50): 2300 nM
EC50 ([2]; read-out: pEC50 (converted)): 2290 nM

CCCC[C@@H]1Cc2ccc(F)cc2[C@@H](c2ccccc2)N1 (relative stereo)
Efficacy [1]: 15%
EC50 ([2]; read-out: EC50): 2000 nM
EC50 ([2]; read-out: pEC50 (converted)): 2000 nM

CC1(CCOC(=O)c2ccccc2)Cc2ccccc2CN1C(=O)c1ccccc1 (configuration not stated)
Efficacy [1]: -70%
EC50 ([2]; read-out: EC50): 13500 nM
EC50 ([2]; read-out: pEC50 (converted)): 13500 nM
Activity [3]: Toxic

N#CC(CCCN1CCC(O)(c2ccc(Cl)cc2)CC1)(c1ccccc1)c1ccccc1 [BERLEX COMPOUND]
Efficacy [1]: -22%
EC50 ([2]; read-out: EC50): 4500 nM
EC50 ([2]; read-out: pEC50 (converted)): 4570 nM
Activity [5]: 2 µM

CCCC[C@H]1Cc2ccc(Cl)cc2[C@@H](c2ccccc2)N1 (relative stereo)
Efficacy [1]: 12%
EC50 ([2]; read-out: EC50): 7800 nM
EC50 ([2]; read-out: pEC50 (converted)): 7760 nM

CCCCCCCCCC(=O)N(CCN(C)C)CC1(C)Cc2ccccc2C(=O)N1 (configuration not stated)
Efficacy [1]: -20%
EC50 ([2]; read-out: EC50): 1500 nM
EC50 ([2]; read-out: pEC50 (converted)): 1510 nM
Activity [3]: Non-toxic
